# Reference: PubChem BioAssay AID212 (DTP/NCI, 2004)
# Several values for one entry are separate records, joined by “and”; a condition that tells them apart may be missing. Equal entries are not always repeated. Inconclusive results are not listed.
# Test system: BDF1 mice, colon carcinoma 38 sc, T/C %
# Test: NCI In Vivo Anticancer Drug Screen. Data for tumor model Colon Carcinoma 38 (subcutaneous) in B6D2F1 (BDF1) mice
# Conditions: endpoint: median tumor weight (est.), higher = larger tumour
# In short: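 Compound antitumor activity was assessed in mice carrying transplantable tumors. Survival or tumor size was recorded, and each value is the treated-group measurement divided by that of the vehicle-treated control group.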
# [1] = dose: 6.25 mg/kg/injection, schedule: Q07DX002 (ip), vehicle: Klucel (hydroxypropylcellulose) (HPC)
# [2] = dose: 12.5 mg/kg/injection, schedule: Q07DX002 (ip), vehicle: Klucel (hydroxypropylcellulose) (HPC)
# [3] = dose: 25.0 mg/kg/injection, schedule: Q07DX002 (ip), vehicle: Klucel (hydroxypropylcellulose) (HPC)
# [4] = dose: 50.0 mg/kg/injection, schedule: Q07DX002 (ip), vehicle: saline with Tween-80
# [5] = dose: 100.0 mg/kg/injection, schedule: Q07DX002 (ip), vehicle: saline with Tween-80
# [6] = dose: 200.0 mg/kg/injection, schedule: Q07DX002 (ip), vehicle: saline with Tween-80
# [7] = dose: 400.0 mg/kg/injection, schedule: Q07DX002 (ip), vehicle: saline with Tween-80
# [8] = dose: 50.0 mg/kg/injection, schedule: Q07DX002 (ip), vehicle: Klucel (hydroxypropylcellulose) (HPC)
# [9] = dose: 100.0 mg/kg/injection, schedule: Q07DX002 (ip), vehicle: Klucel (hydroxypropylcellulose) (HPC)
# [10] = dose: 400.0 mg/kg/injection, schedule: Q07DX002 (ip), vehicle: Klucel (hydroxypropylcellulose) (HPC)
# [11] = dose: 12.5 mg/kg/injection, schedule: Q07DX002 (ip), vehicle: saline
# [12] = dose: 50.0 mg/kg/injection, schedule: Q07DX002 (ip), vehicle: saline
compound,measurement,setting,value
O=NN(CCCl)C(=O)NC1CCCCC1,T/C,[1],91 % of control
same,T/C,"dose: 10.0 mg/kg/injection, schedule: Q07DX003 (ip), vehicle: Klucel (hydroxypropylcellulose) (HPC)",71 % of control
same,T/C,"dose: 10.0 mg/kg/injection, schedule: Q07DX003 (ip), vehicle: carboxymethylcellulose (CMC)",53 % of control
same,T/C,[2],64 % of control
same,T/C,"dose: 20.0 mg/kg/injection, schedule: Q07DX003 (ip), vehicle: Klucel (hydroxypropylcellulose) (HPC)",72 % of control
same,T/C,"dose: 20.0 mg/kg/injection, schedule: Q07DX003 (ip), vehicle: carboxymethylcellulose (CMC)",47 % of control
same,T/C,[3],36 % of control
same,T/C,"dose: 40.0 mg/kg/injection, schedule: Q07DX003 (ip), vehicle: Klucel (hydroxypropylcellulose) (HPC)",44 % of control
same,T/C,"dose: 40.0 mg/kg/injection, schedule: Q07DX003 (ip), vehicle: carboxymethylcellulose (CMC)",24 % of control
same,T/C,"dose: 80.0 mg/kg/injection, schedule: Q07DX003 (ip), vehicle: Klucel (hydroxypropylcellulose) (HPC)",33 % of control
O=C1NC2(CCCCC2)C(=O)N1CCN(CCCl)CCCl,T/C,"dose: 8.0 mg/kg/injection, schedule: Q07DX003 (ip), vehicle: Klucel (hydroxypropylcellulose) (HPC)",60 % of control
same,T/C,"dose: 16.0 mg/kg/injection, schedule: Q07DX003 (ip), vehicle: Klucel (hydroxypropylcellulose) (HPC)",69 % of control and 88 % of control
same,T/C,"dose: 32.0 mg/kg/injection, schedule: Q07DX003 (ip), vehicle: Klucel (hydroxypropylcellulose) (HPC)",38 % of control and 62 % of control
same,T/C,"dose: 64.0 mg/kg/injection, schedule: Q07DX003 (ip), vehicle: Klucel (hydroxypropylcellulose) (HPC)",28 % of control
CN(C)N=Nc1cccc(C(N)=O)c1,T/C,"dose: 10.0 mg/kg/injection, schedule: Q07DX002 (ip), vehicle: Klucel (hydroxypropylcellulose) (HPC)",86 % of control
same,T/C,"dose: 20.0 mg/kg/injection, schedule: Q07DX002 (ip), vehicle: Klucel (hydroxypropylcellulose) (HPC)",86 % of control
same,T/C,"dose: 20.0 mg/kg/injection, schedule: Q07DX002 (ip), vehicle: saline",97 % of control
same,T/C,"dose: 40.0 mg/kg/injection, schedule: Q07DX002 (ip), vehicle: Klucel (hydroxypropylcellulose) (HPC)",44 % of control
same,T/C,"dose: 40.0 mg/kg/injection, schedule: Q07DX002 (ip), vehicle: saline",114 % of control and 104 % of control
same,T/C,"dose: 80.0 mg/kg/injection, schedule: Q07DX002 (ip), vehicle: Klucel (hydroxypropylcellulose) (HPC)",18 % of control
same,T/C,"dose: 160.0 mg/kg/injection, schedule: Q07DX002 (ip), vehicle: saline",27 % of control and 29 % of control
Oc1cc2ccccc2c(-c2c(O)c(O)cc3ccccc23)c1O,T/C,"dose: 12.5 mg/kg/injection, schedule: Q07DX002 (ip), vehicle: saline with Tween-80",94 % of control
same,T/C,"dose: 25.0 mg/kg/injection, schedule: Q07DX002 (ip), vehicle: saline with Tween-80",119 % of control
same,T/C,[4],114 % of control
same,T/C,[5],81 % of control
same,T/C,[6],64 % of control
same,T/C,[7],64 % of control
CC1OC1C(=O)C1(O)C(C)C(O)C23OC2(C(O)c2c(O)cccc2C3=O)C1O (configuration not stated),T/C,"dose: 2.0 mg/kg/injection, schedule: Q07DX002 (ip), vehicle: Klucel (hydroxypropylcellulose) (HPC)",95 % of control and 101 % of control
same,T/C,"dose: 4.0 mg/kg/injection, schedule: Q07DX002 (ip), vehicle: Klucel (hydroxypropylcellulose) (HPC)",77 % of control and 91 % of control
same,T/C,"dose: 8.0 mg/kg/injection, schedule: Q07DX002 (ip), vehicle: Klucel (hydroxypropylcellulose) (HPC)",95 % of control and 102 % of control
same,T/C,"dose: 32.0 mg/kg/injection, schedule: Q07DX002 (ip), vehicle: Klucel (hydroxypropylcellulose) (HPC)",98 % of control
same,T/C,"dose: 64.0 mg/kg/injection, schedule: Q07DX002 (ip), vehicle: Klucel (hydroxypropylcellulose) (HPC)",124 % of control
CCN(CC)CCCNc1nccc2c(C)c3[nH]c4ccncc4c3cc12,T/C,"dose: 0.75 mg/kg/injection, schedule: Q07DX002 (ip), vehicle: acid diluted with saline",76 % of control
same,T/C,"dose: 0.75 mg/kg/injection, schedule: Q07DX002 (ip), vehicle: other",120 % of control
same,T/C,"dose: 1.25 mg/kg/injection, schedule: Q07DX002 (ip), vehicle: other",106 % of control
same,T/C,"dose: 1.5 mg/kg/injection, schedule: Q07DX002 (ip), vehicle: acid diluted with saline",100 % of control
same,T/C,"dose: 1.5 mg/kg/injection, schedule: Q07DX002 (ip), vehicle: other",108 % of control
same,T/C,"dose: 3.0 mg/kg/injection, schedule: Q07DX002 (ip), vehicle: acid diluted with saline",46 % of control
same,T/C,"dose: 3.0 mg/kg/injection, schedule: Q07DX002 (ip), vehicle: other",123 % of control
same,T/C,"dose: 6.0 mg/kg/injection, schedule: Q07DX002 (ip), vehicle: acid diluted with saline",69 % of control
same,T/C,"dose: 6.0 mg/kg/injection, schedule: Q07DX002 (ip), vehicle: other",66 % of control
same,T/C,"dose: 12.0 mg/kg/injection, schedule: Q07DX002 (ip), vehicle: acid diluted with saline",51 % of control
same,T/C,"dose: 12.0 mg/kg/injection, schedule: Q07DX002 (ip), vehicle: other",26 % of control
same,T/C,"dose: 20.0 mg/kg/injection, schedule: Q07DX002 (ip), vehicle: other",41 % of control
C=C(NC(=O)C(=C)NC(=O)c1csc(C2=NC3c4csc(n4)C4NC(=O)c5csc(n5)C(C(C)(O)C(C)O)NC(=O)C5CSC(=N5)/C(=C/C)NC(=O)C(C(C)O)NC(=O)c5csc(n5)C3(CC2)NC(=O)C(C)NC(=O)C(=C)NC(=O)C(C)NC(=O)C(C(C)CC)NC2C=Cc3c(C(C)O)cc(nc3C2O)C(=O)OC4C)n1)C(N)=O (configuration not stated),T/C,[2],70 % of control
same,T/C,[8],106 % of control
same,T/C,[9],106 % of control
same,T/C,"dose: 200.0 mg/kg/injection, schedule: Q07DX002 (ip), vehicle: Klucel (hydroxypropylcellulose) (HPC)",110 % of control
same,T/C,[10],119 % of control
same,T/C,"dose: 400.0 mg/kg/injection, schedule: Q07DX003 (ip), vehicle: Klucel (hydroxypropylcellulose) (HPC)",119 % of control
CSc1cc(=O)n2c3ccccc3c3ccnc1c32,T/C,"dose: 1.25 mg/kg/injection, schedule: Q07DX002 (ip), vehicle: saline with Tween-80",60 % of control
same,T/C,"dose: 2.5 mg/kg/injection, schedule: Q07DX002 (ip), vehicle: saline with Tween-80",57 % of control and 77 % of control
O=S1(=O)C=C(c2ccccc2)C(c2ccccc2)=C1,T/C,"dose: 6.25 mg/kg/injection, schedule: Q07DX002 (ip), vehicle: saline with Tween-80",112 % of control and 97 % of control
same,T/C,[4],62 % of control and 80 % of control
same,T/C,[5],84 % of control
same,T/C,[6],88 % of control
Cn1c(=O)c2ncnnc2n(C)c1=O,T/C,"dose: 3.12 mg/kg/injection, schedule: Q07DX002 (ip), vehicle: Klucel (hydroxypropylcellulose) (HPC)",75 % of control
same,T/C,[1],84 % of control
same,T/C,[2],78 % of control
same,T/C,[3],62 % of control
COc1cc(OC)c(OC)cc1/C=C\c1ccnc2ccccc12,T/C,[2],93 % of control
same,T/C,[3],120 % of control
same,T/C,[8],160 % of control and 171 % of control
same,T/C,[9],85 % of control and 97 % of control
same,T/C,[10],120 % of control
Nc1ncn(C2OC(CO)C(O)C2O)c(=O)n1 (configuration not stated),T/C,[11],69 % of control
same,T/C,"dose: 32.0 mg/kg/injection, schedule: Q07DX002 (ip), vehicle: saline",19 % of control and 31 % of control
same,T/C,[12],80 % of control and 85 % of control and 97 % of control
same,T/C,[6],88 % of control
same,T/C,[7],61 % of control
same,T/C,"dose: 400.0 mg/kg/injection, schedule: Q07DX002 (ip), vehicle: saline",62 % of control and 79 % of control and 82 % of control
same,T/C,"dose: 800.0 mg/kg/injection, schedule: Q07DX002 (ip), vehicle: saline with Tween-80",95 % of control
same,T/C,"dose: 800.0 mg/kg/injection, schedule: Q07DX002 (ip), vehicle: saline",27 % of control
same,T/C,"dose: 1200.0 mg/kg/injection, schedule: Q07DX002 (ip), vehicle: saline with Tween-80",55 % of control
c1cc(-c2cc3ccc(C4=NCCN4)cc3[nH]2)ccc1C1=NCCN1,T/C,"dose: 6.25 mg/kg/injection, schedule: Q07DX002 (ip), vehicle: saline",84 % of control
same,T/C,"dose: 6.25 mg/kg/injection, schedule: Q07DX002 (ip), vehicle: suspension in saline",90 % of control
same,T/C,[11],92 % of control
same,T/C,"dose: 12.5 mg/kg/injection, schedule: Q07DX002 (ip), vehicle: suspension in saline",87 % of control
same,T/C,"dose: 25.0 mg/kg/injection, schedule: Q07DX002 (ip), vehicle: saline",100 % of control
same,T/C,"dose: 25.0 mg/kg/injection, schedule: Q07DX002 (ip), vehicle: suspension in saline",105 % of control
same,T/C,[12],84 % of control
same,T/C,"dose: 50.0 mg/kg/injection, schedule: Q07DX002 (ip), vehicle: suspension in saline",98 % of control
